The values that follow come from patent publication US20220177508A1, “C10-Cyclic Substituted 13-Membered Macrolides and Uses Thereof” (Zikani Therapeutics, Inc., priority 2018, published 2022).

What all share (assay type): cell-based
One assay concerns P. aeruginosa MP-3. The assay is described as follows: Broth dilution MIC determination (CLSI), P. aeruginosa MP-3. To be noted: Pseudomonas aeruginosa, MP3; strain MP-3, broth dilution. On the technique in general: In broth dilution the organism is exposed to a series of concentrations in liquid medium.
The next assay has as its system K. pneumoniae MP-546. The assay is described as follows: Broth dilution MIC determination (CLSI), K. pneumoniae MP-546. To be noted: Klebsiella pneumoniae, MP546; strain MP-546, broth dilution.
The next assay deals with S. aureus MP-12. Kind of assay: Broth dilution MIC determination (CLSI), S. aureus MP-12. The conditions noted are these: Staphylococcus aureus, MP12; strain MP-12, broth dilution.
For a further assay, the system named is A. baumannii MP-15. The assay is described as follows: Broth dilution MIC determination (CLSI), A. baumannii MP-15. To be noted: Acinetobacter baumannii, MP15; strain MP-15, broth dilution; read-out: MIC A. baumanii MP-15.
The subject of a further assay is E. coli MP-4. The assay is described as follows: Broth dilution MIC determination (CLSI), E. coli MP-4. The conditions noted are these: Escherichia coli, MP4; strain MP-4, broth dilution; read-out: MIC E. coli MP-4.
A further assay concerns K. pneumoniae MP-648. The assay is described as follows: Broth dilution MIC determination (CLSI), K. pneumoniae MP-648. The conditions noted are these: Klebsiella pneumoniae, MP648; strain MP-648, broth dilution.

Values after ≈ are worked out from the molar mass of the structure shown.

On to `CO[C@]1(C)C[C@@H](C)CN(C)[C@H](C2CN(Cc3ccccn3)C2)COC(=O)C(C)(C)C(=O)[C@H](C)[C@H]1O[C@@H]1O[C@H](C)C[C@H](N(C)C)[C@H]1O` [Compound 115, (3R,6R,8R,9R,10R)-9-(((2S,3R,4S,6R)-4-(dimethylamino)-3-hydroxy-6-methyltetrahydro-2H-pyran-2-yl)oxy)-8-methoxy-4,6,8,10,12,12-hexamethyl-3-(1-(pyridin-2-ylmethyl)azetidin-3-yl)-1-oxa-4-azacyclotridecane-11,13-dione], for which the MIC was greater than 32 µg/mL in the assay with P. aeruginosa MP-3; 4 to 32 µg/mL (≈ 6.18 to 49.5 µM) against K. pneumoniae MP-546; 4 to 32 µg/mL (≈ 6.18 to 49.5 µM) with S. aureus MP-12; greater than 32 µg/mL with A. baumannii MP-15; less than 4 µg/mL with E. coli MP-4; 4 to 32 µg/mL (≈ 6.18 to 49.5 µM) against K. pneumoniae MP-648.
Turning to `CO[C@]1(C)C[C@@H](C)CN(C)[C@H](C2CN(Cc3cccnc3)C2)COC(=O)C(C)(C)C(=O)[C@H](C)[C@H]1O[C@@H]1O[C@H](C)C[C@H](N(C)C)[C@H]1O` [Compound 119, (3R,6R,8R,9R,10R)-9-(((2S,3R,4S,6R)-4-(dimethylamino)-3-hydroxy-6-methyltetrahydro-2H-pyran-2-yl)oxy)-8-methoxy-4,6,8,10,12,12-hexamethyl-3-(1-(pyridin-3-ylmethyl)azetidin-3-yl)-1-oxa-4-azacyclotridecane-11,13-dione], the MIC in the assay on P. aeruginosa MP-3 is greater than 32 µg/mL; in the assay on K. pneumoniae MP-546, 4 to 32 µg/mL (≈ 6.18 to 49.5 µM); in the assay on S. aureus MP-12 it was 4 to 32 µg/mL (≈ 6.18 to 49.5 µM); in the assay on A. baumannii MP-15, greater than 32 µg/mL; with E. coli MP-4, less than 4 µg/mL; against K. pneumoniae MP-648 it was 4 to 32 µg/mL (≈ 6.18 to 49.5 µM).
With `CO[C@]1(C)C[C@@H](C)CN(C)[C@H](C2CN(C(=O)CN(C)C)C2)[C@@H](C)OC(=O)C(C)(C)C(=O)[C@H](C)[C@H]1O[C@@H]1O[C@H](C)C[C@H](N(C)C)[C@H]1O` [Compound 120, (2R,3R,6R,8R,9R,10R)-9-(((2S,3R,4S,6R)-4-(dimethylamino)-3-hydroxy-6-methyltetrahydro-2H-pyran-2-yl)oxy)-3-(1-(dimethylglycyl)azetidin-3-yl)-8-methoxy-2,4,6,8,10,12,12-heptamethyl-1-oxa-4-azacyclotridecane-11,13-dione], the MIC against P. aeruginosa MP-3 was greater than 32 µg/mL; in the assay with K. pneumoniae MP-546 it was 4 to 32 µg/mL (≈ 6.11 to 48.9 µM); against S. aureus MP-12 it was greater than 32 µg/mL; in the assay with A. baumannii MP-15, greater than 32 µg/mL; with E. coli MP-4 it was 4 to 32 µg/mL (≈ 6.11 to 48.9 µM); in the assay on K. pneumoniae MP-648, greater than 32 µg/mL.
Take `CCN(C)CC(C)(C)CC(=O)N1CC([C@@H]2COC(=O)C(C)(C)C(=O)[C@H](C)[C@@H](O[C@@H]3O[C@H](C)C[C@H](N(C)C)[C@H]3O)[C@](C)(OC)C[C@@H](C)CN2C)C1` [Compound 122, (3R,6R,8R,9R,10R)-9-(((2S,3R,4S,6R)-4-(dimethylamino)-3-hydroxy-6-methyltetrahydro-2H-pyran-2-yl)oxy)-3-(1-(4-(ethyl(methyl)amino)-3,3-dimethylbutanoyl)azetidin-3-yl)-8-methoxy-4,6,8,10,12,12-hexamethyl-1-oxa-4-azacyclotridecane-11,13-dione]: the MIC with P. aeruginosa MP-3 was greater than 32 µg/mL; in the assay on K. pneumoniae MP-546, 4 to 32 µg/mL (≈ 5.63 to 45 µM); with S. aureus MP-12 it was 4 to 32 µg/mL (≈ 5.63 to 45 µM); in the assay with A. baumannii MP-15, greater than 32 µg/mL; in the assay with E. coli MP-4, less than 4 µg/mL; in the assay with K. pneumoniae MP-648, 4 to 32 µg/mL (≈ 5.63 to 45 µM).
In the case of `COCC(C)N1CCC([C@H]2COC(=O)C(C)(C)C(=O)[C@H](C)[C@@H](O[C@@H]3O[C@H](C)C[C@H](N(C)C)[C@H]3O)[C@](C)(OC)C[C@@H](C)CN2C)CC1` (stereo partly drawn) [Compound 124, (3S,6R,8R,9R,10R)-9-(((2S,3R,4S,6R)-4-(dimethylamino)-3-hydroxy-6-methyltetrahydro-2H-pyran-2-yl)oxy)-8-methoxy-3-(1-(1-methoxypropan-2-yl)piperidin-4-yl)-4,6,8,10,12,12-hexamethyl-1-oxa-4-azacyclotridecane-11,13-dione], the MIC in the assay on P. aeruginosa MP-3 is greater than 32 µg/mL; against K. pneumoniae MP-546, less than 4 µg/mL; in the assay with S. aureus MP-12, 4 to 32 µg/mL (≈ 6.1 to 48.8 µM); in the assay on A. baumannii MP-15, greater than 32 µg/mL; in the assay with E. coli MP-4, less than 4 µg/mL; with K. pneumoniae MP-648, 4 to 32 µg/mL (≈ 6.1 to 48.8 µM).
In the case of `CO[C@]1(C)C[C@@H](C)CN(C)[C@H](C2CN(C(=O)CCN(C)CC(C)C)C2)COC(=O)C(C)(C)C(=O)[C@H](C)[C@H]1O[C@@H]1O[C@H](C)C[C@H](N(C)C)[C@H]1O` [Compound 125, (3R,6R,8R,9R,10R)-9-(((2S,3R,4S,6R)-4-(dimethylamino)-3-hydroxy-6-methyltetrahydro-2H-pyran-2-yl)oxy)-3-(1-(3-(isobutyl(methyl)amino)propanoyl)azetidin-3-yl)-8-methoxy-4,6,8,10,12,12-hexamethyl-1-oxa-4-azacyclotridecane-11,13-dione], the MIC in the assay with P. aeruginosa MP-3 was greater than 32 µg/mL; in the assay with K. pneumoniae MP-546 it was 4 to 32 µg/mL (≈ 5.74 to 45.9 µM); against S. aureus MP-12 it was greater than 32 µg/mL; in the assay with A. baumannii MP-15 it was greater than 32 µg/mL; in the assay with E. coli MP-4 it was less than 4 µg/mL; against K. pneumoniae MP-648, 4 to 32 µg/mL (≈ 5.74 to 45.9 µM).
Regarding `CO[C@]1(C)C[C@@H](C)CN(C)[C@H](C2CN(C(=O)[C@H]3CCN(CC4CC4)C3)C2)COC(=O)C(C)(C)C(=O)[C@H](C)[C@H]1O[C@@H]1O[C@H](C)C[C@H](N(C)C)[C@H]1O` [Compound 126, (3R,6R,8R,9R,10R)-3-(1-((S)-1-(cyclopropylmethyl)pyrrolidine-3-carbonyl)azetidin-3-yl)-9-(((2S,3R,4S,6R)-4-(dimethylamino)-3-hydroxy-6-methyltetrahydro-2H-pyran-2-yl)oxy)-8-methoxy-4,6,8,10,12,12-hexamethyl-1-oxa-4-azacyclotridecane-11,13-dione], the MIC in the assay with P. aeruginosa MP-3 is greater than 32 µg/mL; against K. pneumoniae MP-546 it was 4 to 32 µg/mL (≈ 5.66 to 45.3 µM); against S. aureus MP-12, 4 to 32 µg/mL (≈ 5.66 to 45.3 µM); in the assay on A. baumannii MP-15, greater than 32 µg/mL; with E. coli MP-4 it was less than 4 µg/mL; in the assay with K. pneumoniae MP-648, 4 to 32 µg/mL (≈ 5.66 to 45.3 µM).
For `CO[C@]1(C)C[C@@H](C)CN(C)[C@H](C2CN(CC3CCOC3)C2)COC(=O)C(C)(C)C(=O)[C@H](C)[C@H]1O[C@@H]1O[C@H](C)C[C@H](N(C)C)[C@H]1O` (stereo partly drawn) [Compound 127, (3R,6R,8R,9R,10R)-9-(((2S,3R,4S,6R)-4-(dimethylamino)-3-hydroxy-6-methyltetrahydro-2H-pyran-2-yl)oxy)-8-methoxy-4,6,8,10,12,12-hexamethyl-3-(1-((tetrahydrofuran-3-yl)methyl)azetidin-3-yl)-1-oxa-4-azacyclotridecane-11,13-dione], the MIC is greater than 32 µg/mL with P. aeruginosa MP-3; 4 to 32 µg/mL (≈ 6.25 to 50 µM) with K. pneumoniae MP-546; 4 to 32 µg/mL (≈ 6.25 to 50 µM) in the assay on S. aureus MP-12; greater than 32 µg/mL with A. baumannii MP-15; less than 4 µg/mL in the assay on E. coli MP-4; 4 to 32 µg/mL (≈ 6.25 to 50 µM) against K. pneumoniae MP-648.
For `CO[C@]1(C)C[C@@H](C)CN(C)[C@H]([C@H]2C[C@@H](N(C)C)C2)COC(=O)C(C)(C)C(=O)[C@H](C)[C@H]1O[C@@H]1O[C@H](C)C[C@H](N(C)C)[C@H]1O` [Compound 128, (3R,6R,8R,9R,10R)-9-(((2S,3R,4S,6R)-4-(dimethylamino)-3-hydroxy-6-methyltetrahydro-2H-pyran-2-yl)oxy)-3-((1s,3S)-3-(dimethylamino)cyclobutyl)-8-methoxy-4,6,8,10,12,12-hexamethyl-1-oxa-4-azacyclotridecane-11,13-dione], the MIC against P. aeruginosa MP-3 is greater than 32 µg/mL; in the assay on K. pneumoniae MP-546 it was 4 to 32 µg/mL (≈ 6.69 to 53.5 µM); in the assay on S. aureus MP-12 it was greater than 32 µg/mL; in the assay with A. baumannii MP-15, greater than 32 µg/mL; in the assay on E. coli MP-4 it was less than 4 µg/mL; against K. pneumoniae MP-648, 4 to 32 µg/mL (≈ 6.69 to 53.5 µM).
Turning to `CO[C@]1(C)C[C@@H](C)CN(C)[C@H]([C@H]2C[C@H](N(C)CC(C)C)C2)COC(=O)C(C)(C)C(=O)[C@H](C)[C@H]1O[C@@H]1O[C@H](C)C[C@H](N(C)C)[C@H]1O` [Compound 131, (3R,6R,8R,9R,10R)-9-(((2S,3R,4S,6R)-4-(dimethylamino)-3-hydroxy-6-methyltetrahydro-2H-pyran-2-yl)oxy)-3-((1r,3R)-3-(isobutyl(methyl)amino)cyclobutyl)-8-methoxy-4,6,8,10,12,12-hexamethyl-1-oxa-4-azacyclotridecane-11,13-dione], the MIC against P. aeruginosa MP-3 is greater than 32 µg/mL; against K. pneumoniae MP-546 it was less than 4 µg/mL; in the assay on S. aureus MP-12 it was 4 to 32 µg/mL (≈ 6.25 to 50 µM); with A. baumannii MP-15, 4 to 32 µg/mL (≈ 6.25 to 50 µM); in the assay on E. coli MP-4 it was less than 4 µg/mL; against K. pneumoniae MP-648, less than 4 µg/mL.
Regarding `CO[C@]1(C)C[C@@H](C)CN(C)[C@H](C2CN(Cc3cc(C)on3)C2)COC(=O)C(C)(C)C(=O)[C@H](C)[C@H]1O[C@@H]1O[C@H](C)C[C@H](N(C)C)[C@H]1O` [Compound 132, (3R,6R,8R,9R,10R)-9-(((2S,3R,4S,6R)-4-(dimethylamino)-3-hydroxy-6-methyltetrahydro-2H-pyran-2-yl)oxy)-8-methoxy-4,6,8,10,12,12-hexamethyl-3-(1-((5-methylisoxazol-3-yl)methyl)azetidin-3-yl)-1-oxa-4-azacyclotridecane-11,13-dione], the MIC in the assay with P. aeruginosa MP-3 is greater than 32 µg/mL; with K. pneumoniae MP-546, 4 to 32 µg/mL (≈ 6.15 to 49.2 µM); in the assay on S. aureus MP-12 it was 4 to 32 µg/mL (≈ 6.15 to 49.2 µM); in the assay with A. baumannii MP-15, greater than 32 µg/mL; with E. coli MP-4, 4 to 32 µg/mL (≈ 6.15 to 49.2 µM); in the assay with K. pneumoniae MP-648, greater than 32 µg/mL.
`CCN(C)CCCC(=O)N1CC([C@@H]2COC(=O)C(C)(C)C(=O)[C@H](C)[C@@H](O[C@@H]3O[C@H](C)C[C@H](N(C)C)[C@H]3O)[C@](C)(OC)C[C@@H](C)CN2C)C1` [Compound 135, (3R,6R,8R,9R,10R)-9-(((2S,3R,4S,6R)-4-(dimethylamino)-3-hydroxy-6-methyltetrahydro-2H-pyran-2-yl)oxy)-3-(1-(4-(ethyl(methyl)amino)butanoyl)azetidin-3-yl)-8-methoxy-4,6,8,10,12,12-hexamethyl-1-oxa-4-azacyclotridecane-11,13-dione]: the MIC with P. aeruginosa MP-3 is greater than 32 µg/mL; with K. pneumoniae MP-546 it was greater than 32 µg/mL; against S. aureus MP-12, greater than 32 µg/mL; with A. baumannii MP-15 it was greater than 32 µg/mL; with E. coli MP-4, 4 to 32 µg/mL (≈ 5.86 to 46.9 µM); in the assay with K. pneumoniae MP-648, 4 to 32 µg/mL (≈ 5.86 to 46.9 µM).

In general, MIC refers to the lowest concentration that inhibits growth of the organism.
